Results as given in patent US9642831B2, “Substituted chromanes and method of use” (AbbVie S.á.r.l., priority 2014, dated 2017).

Target: F508delCFTR (Homo sapiens, UniProt P13569, DEL508-508)
Assay: Cell Surface Expression-Horse Radish Peroxidase (CSE-HRP) assay
Assay type: cell-based
Design: expressed in transfected cells; host or cells: CFBE41o- human lung derived epithelial cell line, doxycycline-inducible
Conditions: CFBE4lo-F508delCFTR-HRP cells; for EC50: 18-24 hours at 33° C., 8-point curve, highest concentration 20 μM, luminescence readout
Outline: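 Following 18-24 h compound exposure at 33° C. Expression was doxycycline-induced beforehand. % activity versus DMSO and a 3 μM corrector control gave maximum activity and EC50 from a variable-Hill sigmoidal fit.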

[1] = maximum % activity at any tested concentration, normalized to on-plate positive control (3 μM Example 1)

F508delCFTR, sequence (P13569 with tags, fused parts or gaps DEL508-508): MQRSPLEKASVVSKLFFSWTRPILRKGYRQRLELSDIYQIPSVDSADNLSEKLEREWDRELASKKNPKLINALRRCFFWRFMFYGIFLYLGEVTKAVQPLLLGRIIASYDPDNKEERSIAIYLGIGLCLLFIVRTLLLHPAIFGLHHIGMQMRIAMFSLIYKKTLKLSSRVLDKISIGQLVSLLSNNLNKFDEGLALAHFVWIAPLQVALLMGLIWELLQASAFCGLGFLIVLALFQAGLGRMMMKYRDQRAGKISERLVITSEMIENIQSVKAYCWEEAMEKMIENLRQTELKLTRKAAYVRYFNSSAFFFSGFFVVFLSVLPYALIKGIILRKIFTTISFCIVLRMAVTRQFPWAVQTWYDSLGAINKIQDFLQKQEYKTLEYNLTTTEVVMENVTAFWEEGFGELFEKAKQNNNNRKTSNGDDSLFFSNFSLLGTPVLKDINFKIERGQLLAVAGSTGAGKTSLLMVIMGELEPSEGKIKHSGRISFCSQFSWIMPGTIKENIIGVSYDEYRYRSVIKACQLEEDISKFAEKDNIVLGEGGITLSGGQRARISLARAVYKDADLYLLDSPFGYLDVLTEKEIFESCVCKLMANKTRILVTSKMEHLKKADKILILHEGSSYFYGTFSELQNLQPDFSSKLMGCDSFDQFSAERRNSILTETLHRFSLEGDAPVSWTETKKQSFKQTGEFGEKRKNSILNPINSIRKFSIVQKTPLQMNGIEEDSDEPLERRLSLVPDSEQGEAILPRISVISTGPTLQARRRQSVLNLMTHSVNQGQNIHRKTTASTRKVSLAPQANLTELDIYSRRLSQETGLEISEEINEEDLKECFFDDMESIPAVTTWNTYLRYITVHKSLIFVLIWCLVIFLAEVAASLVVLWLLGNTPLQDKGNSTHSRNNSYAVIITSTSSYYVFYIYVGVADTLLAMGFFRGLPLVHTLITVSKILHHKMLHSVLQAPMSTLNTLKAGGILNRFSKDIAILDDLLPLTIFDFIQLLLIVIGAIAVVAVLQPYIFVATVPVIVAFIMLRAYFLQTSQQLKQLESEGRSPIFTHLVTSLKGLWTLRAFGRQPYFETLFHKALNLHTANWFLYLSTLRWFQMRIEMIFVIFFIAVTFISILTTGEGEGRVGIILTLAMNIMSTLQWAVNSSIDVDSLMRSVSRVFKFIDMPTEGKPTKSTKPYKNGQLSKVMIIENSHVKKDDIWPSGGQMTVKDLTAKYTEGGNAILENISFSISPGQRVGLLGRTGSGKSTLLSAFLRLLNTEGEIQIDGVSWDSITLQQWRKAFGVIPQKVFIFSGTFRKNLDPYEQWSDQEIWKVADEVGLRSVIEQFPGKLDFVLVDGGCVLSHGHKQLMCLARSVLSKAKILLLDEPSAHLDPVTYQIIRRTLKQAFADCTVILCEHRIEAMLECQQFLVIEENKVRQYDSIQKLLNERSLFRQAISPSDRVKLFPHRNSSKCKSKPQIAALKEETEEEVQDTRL

Row | Compound | EC50 [nM] | Maximum % activity (%) [1] [%] | Emax [1] [%]
1 | O=C(O)c1cnc(C2CC(NC(=O)C3(c4ccc5c(c4)OC(F)(F)O5)CC3)c3ccccc3O2)s1 (single isomer, unassigned) [Example 136] | 3360 | 90 | 
2 | COc1ccc(C2CC(NC(=O)C3(c4ccc5c(c4)OC(F)(F)O5)CC3)c3ccccc3O2)cc1OC (stereo not drawn) [Example 69, 1-(2,2-difluoro-1,3-benzodioxol-5-yl)-N-[2-(3,4-dimethoxyphenyl)-3,4-dihydro-2H-chromen-4-yl]cyclopropanecarboxamide] | 2120 |  | 109
3 | COC(=O)c1ccc([C@H]2C[C@@H](NC(=O)C3(c4ccc5c(c4)OC(F)(F)O5)CC3)c3ccc(OC)cc3O2)cc1 [Example 110, methyl 4-[(2R,4R)-4-({[1-(2,2-difluoro-1,3-benzodioxol-5-yl)cyclopropyl]carbonyl}amino)-7-methoxy-3,4-dihydro-2H-chromen-2-yl]benzoate] | 280 |  | 115
4 | COC(=O)c1ccc([C@H]2C[C@@H](NC(=O)C3(c4ccc5c(c4)OC(F)(F)O5)CC3)c3ccc(OC)cc3O2)cc1F [Example 137, methyl 4-[(2R,4R)-4-({[1-(2,2-difluoro-1,3-benzodioxol-5-yl)cyclopropyl]carbonyl}amino)-7-methoxy-3,4-dihydro-2H-chromen-2-yl]-2-fluorobenzoate] | 140 |  | 131
5 | CCOC(=O)c1csc([C@H]2C[C@@H](NC(=O)C3(c4ccc5c(c4)OC(F)(F)O5)CC3)c3ccccc3O2)n1 (stereo in doubt) [Example 142, ethyl rel-2-[(2R,4R)-4-({[1-(2,2-difluoro-1,3-benzodioxol-5-yl)cyclopropyl]carbonyl}amino)-3,4-dihydro-2H-chromen-2-yl]-1,3-thiazole-4-carboxylate] | 1180 |  | 87
6 | COc1ccc2c(c1)O[C@@H](C(=O)N1CCOCC1)C[C@@H]2NC(=O)C1(c2ccc3c(c2)OC(F)(F)O3)CC1 (racemic) [Example 196, rac-1-(2,2-difluoro-1,3-benzodioxol-5-yl)-N-[(2R,4S)-7-methoxy-2-(morpholin-4-ylcarbonyl)-3,4-dihydro-2H-chromen-4-yl]cyclopropanecarboxamide] | 1240 |  | 67
7 | O=C(O)c1csc([C@H]2C[C@H](NC(=O)C3(c4ccc5c(c4)OC(F)(F)O5)CC3)c3ccccc3O2)n1 (relative stereo) [Example 144, rel-2-[(2R,4S)-4-({[1-(2,2-difluoro-1,3-benzodioxol-5-yl)cyclopropyl]carbonyl}amino)-3,4-dihydro-2H-chromen-2-yl]-1,3-thiazole-4-carboxylic acid] | > 20000 |  | 11
8 | CC1(C)C[C@@H](NC(=O)C2(c3ccc4c(c3)OC(F)(F)O4)CC2)c2ccc(F)cc2O1 [Example 86, 1-(2,2-difluoro-1,3-benzodioxol-5-yl)-N-[(4R)-7-fluoro-2,2-dimethyl-3,4-dihydro-2H-chromen-4-yl]cyclopropanecarboxamide] | 3500 |  | 101
9 | CCCN(CCO)C(=O)[C@H]1C[C@H](NC(=O)C2(c3ccc4c(c3)OC(F)(F)O4)CC2)c2ccc(OC)cc2O1 (racemic) [Example 183, rac-(2R,4S)-4-({[1-(2,2-difluoro-1,3-benzodioxol-5-yl)cyclopropyl]carbonyl}amino)-N-(2-hydroxyethyl)-7-methoxy-N-propyl-3,4-dihydro-2H-chromene-2-carboxamide] | 860 |  | 67
10 | COc1ccc2c(c1)O[C@@H](C(=O)NC1c3ccccc3CC1O)C[C@@H]2NC(=O)C1(c2ccc3c(c2)OC(F)(F)O3)CC1 (mixture of isomers) [Example 200, rac-(2R,4S)-4-({[1-(2,2-difluoro-1,3-benzodioxol-5-yl)cyclopropyl]carbonyl}amino)-N-(2-hydroxy-2,3-dihydro-1H-inden-1-yl)-7-methoxy-3,4-dihydro-2H-chromene-2-carboxamide] | 2350 |  | 61
11 | COc1ccc2c(c1)O[C@@H](C(=O)NC(CO)CO)C[C@@H]2NC(=O)C1(c2ccc3c(c2)OC(F)(F)O3)CC1 (racemic) [Example 199, rac-(2R,4S)-4-({[1-(2,2-difluoro-1,3-benzodioxol-5-yl)cyclopropyl]carbonyl}amino)-N-(1,3-dihydroxypropan-2-yl)-7-methoxy-3,4-dihydro-2H-chromene-2-carboxamide] | 6890 |  | 27
12 | CC1(C)CC(NC(=O)C2(c3ccc4c(c3)OC(F)(F)O4)CC2)c2ccc(OC(F)F)cc2O1 (stereo not drawn) [Example 125, 1-(2,2-difluoro-1,3-benzodioxol-5-yl)-N-[7-(difluoromethoxy)-2,2-dimethyl-3,4-dihydro-2H-chromen-4-yl]cyclopropanecarboxamide] | 2140 |  | 115
13 | CS(=O)(=O)N1CC2(CC(NC(=O)C3(c4ccc5c(c4)OC(F)(F)O5)CC3)c3ccc(F)cc3O2)C1 (stereo not drawn) [Example 104, 1-(2,2-difluoro-1,3-benzodioxol-5-yl)-N-[7′-fluoro-1-(methylsulfonyl)-3′,4′-dihydrospiro[azetidine-3,2′-chromen]-4′-yl]cyclopropanecarboxamide] | 6580 |  | 49
14 | COC(=O)c1cccc([C@H]2C[C@@H](NC(=O)C3(c4ccc5c(c4)OC(F)(F)O5)CC3)c3ccccc3O2)c1 [Example 8, methyl 3-[(2R,4R)-4-({[1-(2,2-difluoro-1,3-benzodioxol-5-yl)cyclopropyl]carbonyl}amino)-3,4-dihydro-2H-chromen-2-yl]benzoate] | 1750 |  | 98
15 | CCOC(=O)c1ccc([C@H]2C[C@H](NC(=O)C3(c4ccc5c(c4)OC(F)(F)O5)CC3)c3ccccc3O2)nc1 (racemic) [Example 149, ethyl rac-6-[(2R,4S)-4-({[1-(2,2-difluoro-1,3-benzodioxol-5-yl)cyclopropyl]carbonyl}amino)-3,4-dihydro-2H-chromen-2-yl]pyridine-3-carboxylate] | 1530 |  | 85
16 | COc1ccc2c(c1)O[C@@H](C(=O)NC1CCS(=O)(=O)CC1)C[C@@H]2NC(=O)C1(c2ccc3c(c2)OC(F)(F)O3)CC1 (racemic) [Example 191, rac-(2R,4S)-4-({[1-(2,2-difluoro-1,3-benzodioxol-5-yl)cyclopropyl]carbonyl}amino)-N-(1,1-dioxidotetrahydro-2H-thiopyran-4-yl)-7-methoxy-3,4-dihydro-2H-chromene-2-carboxamide] | 4100 |  | 51
17 | COc1ccc2c(c1)OC(C1CNC1)CC2NC(=O)C1(c2ccc3c(c2)OC(F)(F)O3)CC1 (stereo not drawn) [Example 116, N-[2-(azetidin-3-yl)-7-methoxy-3,4-dihydro-2H-chromen-4-yl]-1-(2,2-difluoro-1,3-benzodioxol-5-yl)cyclopropanecarboxamide] | 7640 |  | 59
18 | COC(=O)c1ccc([C@H]2C[C@@H](NC(=O)C3(c4ccc5c(c4)OC(F)(F)O5)CC3)c3ccc(OC(F)F)cc3O2)cc1 [Example 123, methyl 4-[(2R,4R)-4-({[1-(2,2-difluoro-1,3-benzodioxol-5-yl)cyclopropyl]carbonyl}amino)-7-(difluoromethoxy)-3,4-dihydro-2H-chromen-2-yl]benzoate] | 50 |  | 115
19 | COc1ccc2c(c1)OC(c1ccc(OC)c(OC)c1)CC2NC(=O)C1(c2ccc3c(c2)OC(F)(F)O3)CC1 (stereo not drawn) [Example 62, 1-(2,2-difluoro-1,3-benzodioxol-5-yl)-N-[2-(3,4-dimethoxyphenyl)-7-methoxy-3,4-dihydro-2H-chromen-4-yl]cyclopropanecarboxamide] | 690 |  | 135
20 | O=C(NC1CCOc2cc(Br)ccc21)C1(c2ccc3c(c2)OC(F)(F)O3)CC1 (stereo not drawn) [Example 56, N-(7-bromo-3,4-dihydro-2H-chromen-4-yl)-1-(2,2-difluoro-1,3-benzodioxol-5-yl)cyclopropanecarboxamide] | 3120 |  | 124
21 | COc1ccc2c(c1)O[C@@H](C(=O)NC(CO)c1ccccc1)C[C@@H]2NC(=O)C1(c2ccc3c(c2)OC(F)(F)O3)CC1 (mixture of isomers) [Example 190, rac-(2R,4S)-4-({[1-(2,2-difluoro-1,3-benzodioxol-5-yl)cyclopropyl]carbonyl}amino)-N-(2-hydroxy-1-phenylethyl)-7-methoxy-3,4-dihydro-2H-chromene-2-carboxamide] | 2790 |  | 39
22 | CCCN(CCO)C(=O)[C@H]1C[C@@H](NC(=O)C2(c3ccc4c(c3)OC(F)(F)O4)CC2)c2ccc(OC)cc2O1 (racemic) [Example 166, rac-(2R,4R)-4-({[1-(2,2-difluoro-1,3-benzodioxol-5-yl)cyclopropyl]carbonyl}amino)-N-(2-hydroxyethyl)-7-methoxy-N-propyl-3,4-dihydro-2H-chromene-2-carboxamide] | 2000 |  | 65
23 | COc1ccc2c(c1)O[C@@H](C(=O)NC(C)(C)CO)C[C@@H]2NC(=O)C1(c2ccc3c(c2)OC(F)(F)O3)CC1 (racemic) [Example 189, rac-(2R,4S)-4-({[1-(2,2-difluoro-1,3-benzodioxol-5-yl)cyclopropyl]carbonyl}amino)-N-(1-hydroxy-2-methylpropan-2-yl)-7-methoxy-3,4-dihydro-2H-chromene-2-carboxamide] | 3830 |  | 58
24 | O=C(O)c1cccc([C@H]2C[C@@H](NC(=O)C3(c4ccc5c(c4)OC(F)(F)O5)CC3)c3ccc(Cl)nc3O2)c1 (racemic) [Example 114, rac-3-[(2R,4R)-7-chloro-4-({[1-(2,2-difluoro-1,3-benzodioxol-5-yl)cyclopropyl]carbonyl}amino)-3,4-dihydro-2H-pyrano[2,3-b]pyridin-2-yl]benzoic acid] | 4760 |  | 61
